From article PMC10820444, “1,2,4-Triazole-Tethered Indolinones as New Cancer-Fighting Small Molecules Targeting VEGFR-2: Synthesis, Biological Evaluations and Molecular Docking” (Pharmaceuticals, 2024)
Where two headings read alike, the source gives them in different places.

Key:
HepG2 cell line = assay: MTT anti-proliferative assay, HepG2; format: cell-based, human; conditions: mean ± S.D., 3 separate experiments
Experimental: (§1) 1. Anti-proliferative activity against HepG2 and PANC1 cancer cell lines
(§2) American Type Culture Collection (ATCC). Cells lines were maintained as monolayers in Dulbecco’s Modified Eagle’s Medium (DMEM) supplemented with 10% FBS, 2 mM L-glutamine, 100 U/ml penicillin and 100µg/ml streptomycin sulfate. Cells were sub-cultured with trypsine /EDTA solution, counted with haemocytometer and plated onto 96-well plates (5000 cells/well) and left overnight to form a semi-confluent monolayer. Cell monolayers were treated in quadrates with vehicle (DMSO, 0.1% v/v), and test samples […]
(§3) end of exposure, MTT solution in PBS (5 mg/ml) was then added to all well including no cell blank and left to incubate for 90 min. The formation of formazan crystals were visually confirmed using phase contract microscopy. DMSO (100 µl/well) was added to dissolve the formazan crystals with shaking for 10 min after which the absorbance was read at 590 nm against no cell blanks on a FLuo Star Optima microplate reader (BMG technologies, Germany). Cell proliferation was calculated comparing the OD values of the DMSO control wells and those of the samples represented as % proliferation to the control. Dose-response experiment was performed on samples producing > or =50% loss of cell proliferation using five serial 2-fold dilutions (50, 25, 12.5, 6.25 and 3.125 µM) of the […]
(§4) vehicle control) were calculated using non-linear regression curve fitting of the dose response plots on GraphPad Prism V.6.0 software.

PANC1 cell line = assay: MTT anti-proliferative assay, PANC1; format: cell-based, human; conditions: for IC50: MTT, 48 h exposure, mean ± S.D., 3 separate experiments
Experimental: as §1, §2
as §3, with “cell” for “cell proliferation using five serial 2-fold dilutions (50, 25, 12.5, 6.25 and 3.125 µM) of the”
as §4

[1] = Cytotoxicity against non-tumorigenic Vero cell line; format: cell-based; conditions: African green monkey, Vero cells (non-tumorigenic), read-out: IC50 Vero (cytotoxic activity)
VEGFR-2 [2] = target: T1, VEGFR-2 (Homo sapiens, UniProt P35968); parameters: purchased BPS Bioscience 40325; method as in doi:10.1016/j.molstruc.2021.131832; conditions: cited from earlier work
T1 sequence (P35968 20-1356): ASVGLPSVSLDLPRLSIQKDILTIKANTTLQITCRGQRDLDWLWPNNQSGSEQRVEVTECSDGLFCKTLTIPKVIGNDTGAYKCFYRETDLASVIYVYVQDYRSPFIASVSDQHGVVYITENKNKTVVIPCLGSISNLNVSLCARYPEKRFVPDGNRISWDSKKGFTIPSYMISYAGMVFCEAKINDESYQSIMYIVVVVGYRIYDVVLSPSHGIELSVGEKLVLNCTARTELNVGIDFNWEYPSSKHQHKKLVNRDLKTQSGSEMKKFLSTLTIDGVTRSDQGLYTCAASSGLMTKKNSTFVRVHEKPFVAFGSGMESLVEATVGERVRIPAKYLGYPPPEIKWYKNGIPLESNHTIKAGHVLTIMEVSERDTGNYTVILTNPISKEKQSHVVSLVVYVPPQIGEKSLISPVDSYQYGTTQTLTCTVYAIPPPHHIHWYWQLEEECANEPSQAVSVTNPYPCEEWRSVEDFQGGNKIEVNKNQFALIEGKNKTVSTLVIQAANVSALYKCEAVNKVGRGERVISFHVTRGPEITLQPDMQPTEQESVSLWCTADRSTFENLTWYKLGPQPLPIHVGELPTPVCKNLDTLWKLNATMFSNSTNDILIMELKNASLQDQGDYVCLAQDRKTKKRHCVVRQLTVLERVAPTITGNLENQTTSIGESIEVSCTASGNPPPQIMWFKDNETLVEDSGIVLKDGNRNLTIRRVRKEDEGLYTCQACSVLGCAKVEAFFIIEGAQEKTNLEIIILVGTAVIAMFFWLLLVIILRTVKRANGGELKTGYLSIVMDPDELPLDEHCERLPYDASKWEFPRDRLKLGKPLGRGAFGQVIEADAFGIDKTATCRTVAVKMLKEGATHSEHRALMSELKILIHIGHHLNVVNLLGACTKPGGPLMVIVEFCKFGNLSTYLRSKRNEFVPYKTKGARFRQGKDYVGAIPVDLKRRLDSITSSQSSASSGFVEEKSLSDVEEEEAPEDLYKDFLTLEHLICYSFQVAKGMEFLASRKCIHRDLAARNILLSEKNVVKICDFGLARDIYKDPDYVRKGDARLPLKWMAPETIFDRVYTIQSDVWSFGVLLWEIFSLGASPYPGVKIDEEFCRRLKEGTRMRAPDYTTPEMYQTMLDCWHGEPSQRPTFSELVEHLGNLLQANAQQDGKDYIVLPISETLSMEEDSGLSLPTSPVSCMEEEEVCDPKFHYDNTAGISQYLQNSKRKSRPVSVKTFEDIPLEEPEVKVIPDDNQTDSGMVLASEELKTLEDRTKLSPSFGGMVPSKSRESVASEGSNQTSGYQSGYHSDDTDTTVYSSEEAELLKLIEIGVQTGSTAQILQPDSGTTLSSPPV

HepG2 = tested on: HepG2; parameters: method as in doi:10.1016/j.molstruc.2021.131832; conditions: hepatocellular cell line HepG2; cited from earlier work
VEGFR-2 [3] = target: T1, VEGFR-2; assay: VEGFR-2 Kinase Assay Kit (BPS Bioscience)
Experimental: (§5) In brief, the master mixture was produced (25 μL per well) and poured into
(§6) each well. Each well received 5 μL of inhibitor solution designated as "Test Inhibitor". The "Positive Control" and "Blank" groups received 5 μL of the same solution without the
(§7) inhibitor (Inhibitor buffer). In order to prepare 3 mL of kinase buffer, 600 μL of kinase
(§8) buffer were combined with 2400 μL of water. The blank wells received 20 μL of kinase
(§9) buffer. The amount of VEGFR-2 required for the test was measured and the enzyme was
(§10) diluted to 1 ng/ μL with kinase buffer. 20 μL of diluted VEGFR-2 enzymes was added to
(§11) the wells designated as "Test Inhibitor Control” and “Positive Control” to start the reaction
(§12) and the mixtures were incubated at 30 °C for 45 minutes. After the 45 minutes, each well received 50 μL of KinaseGlo Max reagent and the plate was incubated at room temperature
(§13) for 15 minutes. The luminescence was measured with a microplate reader.

VEGFR-2 [4] = target: T1, VEGFR-2; assay: biochemical
Experimental: as §5, §6, §7, §8, §9, §10, §11, §12, §13

Vero cell line = assay: Cytotoxicity against non-tumorigenic Vero cell line; format: cell-based; conditions: read-out: IC50 Vero (cytotoxic activity)
VEGFR-2 [5] = target: T1, VEGFR-2; parameters: purchased BPS Bioscience 40325; method as in PMID 35217379; conditions: cited from earlier work
[6] = Homo sapiens, HepG2, 48 h exposure

| SMILES | IC50 (HepG2 cell line; [6]) | IC50 (PANC1 cell line; Homo sapiens, PANC-1) | further results |
| --- | --- | --- | --- |
| CC(=O)Nc1ccc(-c2nc(C(=O)NN=C3C(=O)Nc4ccc(Br)cc43)nn2-c2ccc(Cl)cc2)cc1 [11j, N-[4-(3-{N′-[5-Bromo-2-oxo-2,3-dihydro-1H-indol-3-ylidene]hydrazinecarbonyl}-1-(4-chlorophenyl)-1H-1,2,4-triazol-5-yl)phenyl]acetamide] | 1.01 ± 0.02 µM | 1.68 ± 0.06 µM | – |
| CC(=O)Nc1ccc(-c2nc(C(=O)NN=C3C(=O)Nc4ccc(Cl)cc43)nn2-c2ccc(Cl)cc2)cc1 [11i, N-[4-(3-{N′-[5-Chloro-2-oxo-2,3-dihydro-1H-indol-3-ylidene]hydrazinecarbonyl}-1-(4-chlorophenyl)-1H-1,2,4-triazol-5-yl)phenyl]acetamide] | 4.49 ± 0.15 µM | 3.75 ± 0.09 µM | – |
| CC(=O)Nc1ccc(-c2nc(C(=O)NN=C3C(=O)Nc4ccccc43)nn2-c2ccc(Cl)cc2)cc1 [11g, N-{4-[1-(4-Chlorophenyl)-3-{N′-[2-oxo-2,3-dihydro-1H-indol-3-ylidene]hydrazinecarbonyl}-1H-1,2,4-triazol-5-yl]phenyl}acetamide] | 0.71 ± 0.01 µM | 0.77 ± 0.02 µM | IC50 [1]: 10.7 ± 0.71 µM |
| CC(=O)Nc1ccc(-c2nc(C(=O)NN=C3C(=O)N(Cc4ccccc4)c4ccc(Br)cc43)nn2-c2ccc(Cl)cc2)cc1 [14d, N-[4-(3-{N′-[1-Benzyl-5-bromo-2-oxo-2,3-dihydro-1H-indol-3-ylidene]hydrazinecarbonyl}-1-(4-chlorophenyl)-1H-1,2,4-triazol-5-yl)phenyl]acetamide] | 0.92 ± 0.02 µM | 0.42 ± 0.01 µM | – |
| CC(=O)Nc1ccc(-c2nc(C(=O)NN=C3C(=O)Nc4ccc([N+](=O)[O-])cc43)nn2-c2ccc(Cl)cc2)cc1 [11l, N-{4-[1-(4-Chlorophenyl)-3-{N′-[5-nitro-2-oxo-2,3-dihydro-1H-indol-3-ylidene]hydrazinecarbonyl}-1H-1,2,4-triazol-5-yl]phenyl}acetamide] | 1.73 ± 0.06 µM | 0.17 ± 0.01 µM | – |
| CC(=O)Nc1ccc(-c2nc(C(=O)NN=C3C(=O)Nc4ccc(F)cc43)nn2-c2ccc(Cl)cc2)cc1 [11h, N-{4-[1-(4-Chlorophenyl)-3-{N′-[5-fluoro-2-oxo-2,3-dihydro-1H-indol-3-ylidene]hydrazinecarbonyl}-1H-1,2,4-triazol-5-yl]phenyl}acetamide] | 1.27 ± 0.04 µM | 0.22 ± 0.01 µM | melting point: > 300 °C; fold improvement of efficacy against PANC1 compared to 11b (PANC1 cell line; versus fluorinated-phenyl counterpart 11b): 8 fold |
| COc1cccc2c1C(=O)c1c(O)c3c(c(O)c1C2=O)C[C@@](O)(C(=O)CO)C[C@@H]3O[C@H]1C[C@H](N)[C@H](O)[C@H](C)O1 [Dox., reference compound] | – | – | IC50 (HepG2 cell line; 48 h exposure): 0.43 ± 0.02 µM; IC50 (PANC1 cell line): 0.19 ± 0.01 µM |
| CC(=O)Nc1ccc(-c2nc(C(=O)NN=C3C(=O)Nc4ccc(Cl)cc43)nn2-c2ccc(F)cc2)cc1 [11c, N-[4-(3-{N′-[5-Chloro-2-oxo-2,3-dihydro-1H-indol-3-ylidene]hydrazinecarbonyl}-1-(4-fluorophenyl)-1H-1,2,4-triazol-5-yl)phenyl]acetamide] | 2.21 ± 0.03 µM | 0.98 ± 0.06 µM | – |
| CC(=O)Nc1ccc(-c2nc(C(=O)NN=C3C(=O)Nc4ccccc43)nn2-c2ccc(F)cc2)cc1 [11a, N-{4-[1-(4-Fluorophenyl)-3-{N′-[2-oxo-2,3-dihydro-1H-indol-3-ylidene]hydrazinecarbonyl}-1H-1,2,4-triazol-5-yl]phenyl}acetamide] | 2.06 ± 0.03 µM | 4.29 ± 0.1 µM | – |
| CC(=O)Nc1ccc(-c2nc(C(=O)NN=C3C(=O)Nc4ccc(F)cc43)nn2-c2ccc(F)cc2)cc1 [11b, N-[4-(3-{N′-[5-Fluoro-2-oxo-2,3-dihydro-1H-indol-3-ylidene]hydrazinecarbonyl}-1-(4-fluorophenyl)-1H-1,2,4-triazol-5-yl)phenyl]acetamide] | 1.17 ± 0.03 µM | 1.74 ± 0.02 µM | – |
| CC(=O)Nc1ccc(-c2nc(C(=O)NN=C3C(=O)N(C)c4ccccc43)nn2-c2ccc(F)cc2)cc1 [14a, N-{4-[1-(4-Fluorophenyl)-3-{N′-[1-methyl-2-oxo-2,3-dihydro-1H-indol-3-ylidene]hydrazinecarbonyl}-1H-1,2,4-triazol-5-yl]phenyl}acetamide] | 1.63 ± 0.02 µM | 4.05 ± 0.1 µM | – |
| CC(=O)Nc1ccc(-c2nc(C(=O)NN=C3C(=O)Nc4ccc([N+](=O)[O-])cc43)nn2-c2ccc(F)cc2)cc1 [11f, N-{4-[1-(4-Fluorophenyl)-3-{N′-[5-nitro-2-oxo-2,3-dihydro-1H-indol-3-ylidene]hydrazinecarbonyl}-1H-1,2,4-triazol-5-yl]phenyl}acetamide] | 2.41 ± 0.04 µM | 0.23 ± 0.01 µM | – |
| CCOC(=O)/C(=N\Nc1ccc(Cl)cc1)Sc1nnc(C(F)(F)F)n1/N=C/c1ccc(OC)cc1 [II] | – | – | IC50 (VEGFR-2 [2]): 0.074 µM; IC50 (HepG2): 10 µM |
| CC(=O)Nc1ccc(-c2nc(C(=O)NN=C3C(=O)Nc4ccc(Br)cc43)nn2-c2ccc(F)cc2)cc1 [11d, N-[4-(3-{N′-[5-Bromo-2-oxo-2,3-dihydro-1H-indol-3-ylidene]hydrazinecarbonyl}-1-(4-fluorophenyl)-1H-1,2,4-triazol-5-yl)phenyl]acetamide] | 0.73 ± 0.02 µM | 1.16 ± 0.02 µM | fold enhancement of efficacy against VEGFR-2 compared to 11e (VEGFR-2 [3]; 5-Br versus 5-OCH3 (11e)): approximately 3 fold; IC50 (VEGFR-2 [4]): 0.0163 ± 0.00042 µM; IC50 (Vero cell line): 8.35 ± 0.62 µM; IC50 [1]: 11.7 ± 0.93 µM |
| COc1ccc2c(c1)C(=NNC(=O)c1nc(-c3ccc(NC(C)=O)cc3)n(-c3ccc(Cl)cc3)n1)C(=O)N2 [11k, N-{4-[1-(4-Chlorophenyl)-3-{N′-[5-methoxy-2-oxo-2,3-dihydro-1H-indol-3-ylidene]hydrazinecarbonyl}-1H-1,2,4-triazol-5-yl]phenyl}acetamide] | 0.73 ± 0.01 µM | 1.78 ± 0.04 µM | times increase of VEGFR-2 activity compared to 11g (VEGFR-2 [3]; versus unsubstituted indolin-2-one 11g): approximately 3 times; IC50 (VEGFR-2 [4]): 0.0413 ± 0.00031 µM; IC50 [1]: 13.2 ± 1.09 µM |
| Cc1ccc(NC(=O)CSc2nnc(Cn3c(=O)c(C)nc4ccccc43)n2C)cc1 [I] | – | – | IC50 (VEGFR-2 [5]): 0.06 µM |
| CC(=O)Nc1ccc(-c2nc(C(=O)NN=C3C(=O)N(C)c4ccccc43)nn2-c2ccc(Cl)cc2)cc1 [14c, N-{4-[1-(4-Chlorophenyl)-3-{N′-[1-methyl-2-oxo-2,3-dihydro-1H-indol-3-ylidene]hydrazinecarbonyl}-1H-1,2,4-triazol-5-yl]phenyl}acetamide] | 0.58 ± 0.01 µM | 0.2 µM | IC50 [1]: 7.92 ± 0.48 µM |
| COc1ccc2c(c1)C(=NNC(=O)c1nc(-c3ccc(NC(C)=O)cc3)n(-c3ccc(F)cc3)n1)C(=O)N2 [11e, N-{4-[1-(4-Fluorophenyl)-3-{N′-[5-methoxy-2-oxo-2,3-dihydro-1H-indol-3-ylidene]hydrazinecarbonyl}-1H-1,2,4-triazol-5-yl]phenyl}acetamide] | 0.76 ± 0.02 µM | 2.22 ± 0.07 µM | IC50 (VEGFR-2 [4]): 0.0484 ± 0.00039 µM; IC50 (Vero cell line): 11.7 ± 0.93 µM; IC50 [1]: 8.35 ± 0.62 µM |
| CC(=O)Nc1ccc(-c2nc(C(=O)NN=C3C(=O)N(Cc4ccccc4)c4ccc(Br)cc43)nn2-c2ccc(F)cc2)cc1 [14b, N-[4-(3-{N′-[1-Benzyl-5-bromo-2-oxo-2,3-dihydro-1H-indol-3-ylidene]hydrazinecarbonyl}-1-(4-fluorophenyl)-1H-1,2,4-triazol-5-yl)phenyl]acetamide] | 0.98 µM | 0.76 ± 0.04 µM | – |
